Converted amounts (≈) assume the structure as drawn. Read-outs that look alike come from different tables or passages of the source.
Legend:
[1] = system: T. b. brucei (Tbb) GuTat3.1; assay: Anti-trypanosomal assay (CellTiter-Glo viability); format: cell-based; conditions: TbbGUTat3.1, mean ± SD
Excerpt: (§1) Raltitrexed was purchased from ApexBio (Houston, TX, USA), and CultureSure DMSO was obtained from Wako Pure Chemical (Osaka, Japan). T. b. brucei (Tbb) GuTat3.1, T. b. rhodesiense (Tbr) IL1501, T. b. gambiense (Tbg) IL1922 (isolated from Ivory Coast), T. evansi (Tev) Tansui (isolated from Taiwan), T. equiperdum (Teq) IVM-t1 and T. congolense (Tc) IL3000 were also obtained for this study. A 96-well Optical bottom plate was purchased from ThermoFisher […] (Waltham, MA, USA). CellTiter-Glo Luminescent cell viability reagent and GloMax plate reader were purchased from Promega Corporation (Fitchburg, WI, USA). Hiram's modified Isocove's Dulbecco's medium (HMI-9), HEPES, pyruvic acid sodium salt, BSA, thymidine, 2-mercaptoethanol, L-cysteine, bathocuproine and hypoxanthine were purchased from Sigma-Aldrich (Tokyo, Japan). A basic plate shaker was obtained from IKA® JAPAN (K.K., Osaka, Japan).
(§2) The trypanocidal activity of raltitrexed was evaluated. The trypanosomes were cultured at 37° C. for Tbb, Tbg, Tbr, Teq and Tev and 33° C. for Tc in an incubator at 5% CO2 using HMI-9 supplemented with 20% heat-inactivated fetal calf serum, 60 mM HEPES, 10 μg/L insulin, 0.1 mM bathocuproine, 5.5 μg/L transferrin, 1 mM pyruvic acid sodium salt, 1 mM hypoxanthine, 16 μM thymidine, 6.7 ng/L sodium selenite, 0.0001% 2-$-mercaptoethanol, 2 mM L-cysteine and 0.4 g/L BSA. Trypanosomes were subcultured every two days. Raltitrexed was dissolved in DMSO:H2O (1:10, v/v). The effect of the solvent was assessed to be negligible on the parasite.
(§3) Initially, raltitrexed was examined at two concentrations of 25 and 0.25 μg/ml to check the possible extended spectrum opportunities against six trypanosomes. […] This range was effective in the accurate estimation of the IC50 of the compound. After three days of cultivation, 25 μL of CellTiter-Glo Luminescent cell viability reagent were aliquoted into each well, and the plate was shaken for 500 shakes/min by an MS3 basic plate shaker for 30 s to facilitate cell lysis and release intracellular ATP. After mixing, the bioluminescence of each well was measured using a Glomax plate reader.

[2] = system: T. b. rhodesiense (Tbr) IL1501; assay: Anti-trypanosomal assay (CellTiter-Glo viability); format: cell-based; conditions: TbrIL1501, mean ± SD
Excerpt: as §1, §2, §3

T. evansi (Tev) Tansui = assay: Anti-trypanosomal assay (CellTiter-Glo viability); format: cell-based; conditions: mean ± SD
Excerpt: as §1, §2, §3

[3] = system: T. equiperdum (Teq) IVM-t1; assay: Anti-trypanosomal assay (CellTiter-Glo viability); format: cell-based; conditions: mean ± SD
Excerpt: as §1, §2, §3

[4] = system: T. b. gambiense (Tbg) IL1922; assay: Anti-trypanosomal assay (CellTiter-Glo viability); format: cell-based; conditions: TbgIL1922, mean ± SD
Excerpt: as §1, §2, §3

[5] = system: T. congolense (Tc) IL3000; assay: Anti-trypanosomal assay (CellTiter-Glo viability); format: cell-based; conditions: TcIL3000
Excerpt: as §1, §2, §3

[6] = molecular target: DHFR activity of TbDHFR-TS (Trypanosoma brucei brucei, UniProt Q27783); conditions: cited from earlier work
Chain of DHFR activity of TbDHFR-TS (Q27783 whole entry): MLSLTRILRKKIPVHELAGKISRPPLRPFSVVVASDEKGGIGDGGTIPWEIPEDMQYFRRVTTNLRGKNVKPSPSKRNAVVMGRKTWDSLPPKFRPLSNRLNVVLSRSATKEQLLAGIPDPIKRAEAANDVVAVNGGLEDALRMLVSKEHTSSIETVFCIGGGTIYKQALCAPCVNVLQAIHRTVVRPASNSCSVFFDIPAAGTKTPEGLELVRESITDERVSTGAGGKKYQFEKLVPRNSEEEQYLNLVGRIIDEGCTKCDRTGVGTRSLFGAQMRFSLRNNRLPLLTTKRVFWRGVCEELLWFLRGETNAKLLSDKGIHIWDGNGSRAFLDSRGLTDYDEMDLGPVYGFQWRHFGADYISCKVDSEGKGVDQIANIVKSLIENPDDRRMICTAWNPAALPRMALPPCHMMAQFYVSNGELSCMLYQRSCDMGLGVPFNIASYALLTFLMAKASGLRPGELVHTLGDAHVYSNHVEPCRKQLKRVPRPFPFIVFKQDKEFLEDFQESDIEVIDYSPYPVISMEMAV

TS activity of TbDHFR-TS = TS activity of TbDHFR-TS (Trypanosoma brucei brucei, UniProt Q27783); conditions: cited from earlier work
Chain of TS activity of TbDHFR-TS (Q27783 whole entry): as above

six Trypanosoma species = assay: Anti-trypanosomal assay, six trypanosomes taken together; format: cell-based
Excerpt: as §1, §2
Initially, raltitrexed was examined at two concentrations of 25 and 0.25 μg/ml to check the possible extended spectrum opportunities against six trypanosomes. […] This range was effective in the accurate estimation of the IC50 of the compound. […] After mixing, the bioluminescence of each well was measured using a Glomax plate reader.

T. brucei = conditions: cited from earlier work; for potency against T. brucei: thymidine and folate-deficient medium

Compound: Cc1nc2ccc(CN(C)c3ccc(C(=O)N[C@@H](CCC(=O)O)C(=O)O)s3)cc2c(=O)[nH]1 [Raltitrexed]
- Inhibition Rate at 25 μg/mL ([1]; 25 μg/mL): 99.47 ± 0.07%
- inhibition at 0.25 µg/mL ([1]; Trypanosoma brucei, 0.25 μg/mL, read-out: Inhibition Rate at 0.25 μg/mL): 0%
- inhibition at 25 µg/mL ([1]; Trypanosoma brucei, 25 μg/mL, read-out: Inhibition Rate at 25 μg/mL): > 99%
- Inhibition Rate at 25 μg/mL ([2]; 25 μg/mL): 99.68 ± 0.16%
- inhibition at 0.25 µg/mL ([2]; Trypanosoma brucei, RHODESIENSE, 0.25 μg/mL, read-out: Inhibition Rate at 0.25 μg/mL): 1.01 ± 1.4%
- inhibition at 25 µg/mL ([2]; Trypanosoma brucei, RHODESIENSE, 25 μg/mL, read-out: Inhibition Rate at 25 μg/mL): > 99%
- inhibition at 0.25 µg/mL (T. evansi (Tev) Tansui; 0.25 μg/mL, read-out: Inhibition Rate at 0.25 μg/mL): 0%
- Inhibition Rate at 25 μg/mL (T. evansi (Tev) Tansui; 25 μg/mL): 99.9 ± 0.12%
- inhibition at 25 µg/mL (T. evansi (Tev) Tansui; 25 μg/mL, read-out: Inhibition Rate at 25 μg/mL): > 99%
- Inhibition Rate at 25 μg/mL ([3]; 25 μg/mL): 99.8 ± 0.027%
- inhibition at 0.25 µg/mL ([3]; Trypanosoma equiperdum, 0.25 μg/mL, read-out: Inhibition Rate at 0.25 μg/mL): 0%
- inhibition at 25 µg/mL ([3]; Trypanosoma equiperdum, 25 μg/mL, read-out: Inhibition Rate at 25 μg/mL): > 99%
- Inhibition Rate at 25 μg/mL ([4]; 25 μg/mL): 99.6 ± 0.33%
- inhibition at 0.25 µg/mL ([4]; Trypanosoma brucei, GAMBIENSE, 0.25 μg/mL, read-out: Inhibition Rate at 0.25 μg/mL): 0%
- inhibition at 25 µg/mL ([4]; Trypanosoma brucei, GAMBIENSE, 25 μg/mL, read-out: Inhibition Rate at 25 μg/mL): > 99%
- Inhibition Rate at 25 μg/mL ([5]; 25 μg/mL, mean ± SD): low trypanocidal rate
- IC50 ([5]; Trypanosoma congolense, 72 h, three days of cultivation): > 25 µg/mL
- inhibition at 0.25 µg/mL ([5]; Trypanosoma congolense, 0.25 μg/mL, mean ± SD, read-out: Inhibition Rate at 0.25 μg/mL): 0%
- inhibition at 25 µg/mL ([5]; Trypanosoma congolense, 25 μg/mL, mean ± SD, read-out: Inhibition Rate at 25 μg/mL): 1.77 ± 2.5%
- IC50 [6]: 93.1 nM
- IC50 (TS activity of TbDHFR-TS): 215 nM
- trypanocidal action on all test strains (six Trypanosoma species; 25 μg/mL): suppressed all the test strains
- IC50 (six Trypanosoma species; Trypanosoma, range across species, serial dilution 25 to 0.78 μg/mL, read-out: IC50 range over the Trypanosoma species): 5.18 to 24.1 µg/mL (≈ 11.3 to 52.6 µM)
- IC50 (six Trypanosoma species; range against Trypanosoma, summary statement, read-out: estimated IC50 range): 8.88 to 22.5 µg/mL (≈ 19.4 to 49.1 µM)
- effect of adding folate and thymidine on effectiveness (T. brucei; folate and/or thymidine added to the medium): addition of thymidine decreased the effectiveness of raltitrexed more so than the addition of folate
- potency against T. brucei (T. brucei): Nanomolar potency

Compound: Nc1nc2[nH]cc(CCc3ccc(C(=O)N[C@@H](CCC(=O)O)C(=O)O)cc3)c2c(=O)[nH]1 [pemetrexed]
- potency against T. brucei (T. brucei): Nanomolar potency

Compound: CN(Cc1cnc2nc(N)nc(N)c2n1)c1ccc(C(=O)N[C@@H](CCC(=O)O)C(=O)O)cc1 [methotrexate]
- potency against T. brucei (T. brucei): Nanomolar potency

— patent US11801247B1, “Method of treating trypanosomiasis” (KING FAISAL UNIVERSITY, priority 2023, dated 2023)
